Data on eleven compounds can be found in ChEMBL document CHEMBL1201862, “PubChem BioAssay data set” (2004).

Assay in all cases: NCI tumour cell line growth inhibition, 48 h
The subject of test [1] is CCRF-CEM.
For test [2], the system named is SF-295.
The subject of test [3] is ACHN.
For test [4], the system named is OVCAR-4.
In test [5] the test system is NCI-H226.
Test [6] concerns MOLT-4.
Test [7] concerns A498.
Test [8] concerns HCT-15.
The test system of test [9] is 786-0.
Test [10] deals with NCI-H460.
Test [11] concerns U-251.
The subject of test [12] is HT-29.
Test [13] relates to UACC-257.
Test [14] has as its system NCI-H522.
Test [15] concerns EKVX.
Test [16] concerns SW-620.
The test system of test [17] is SR.
Test [18] deals with SNB-19.
The subject of test [19] is UACC-62.

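Exposure lasted 48 hours, with cells grown in 96-well plates and compounds tested at five concentrations. GI50 marks 50% less growth.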 Calls of active or inactive are those of the source. Rule as the data show it: active = GI50 up to about 1.1 µM and inactive = higher.

Regarding `CC1=NN(c2cccc(Cl)c2)C2(C1=Cc1ccccc1)C(Cl)C(=O)N2c1nc2ccccc2s1` (stereo not drawn), the GI50 in test [1] was 22.1 µM (inactive); in [2], 20.2 µM (inactive); in test [3], 16.7 µM (inactive); in [4], 19.1 µM (inactive); in test [5] it was 23.8 µM (inactive); in [6] it was 23.5 µM (inactive). Moreover, the GI50 in test [7] was 18.2 µM (inactive); in test [8] it was 15.9 µM; in [9], 17.5 µM (inactive); in test [10], 15.2 µM (inactive); in test [11] it was 14.1 µM (inactive); in test [12] it was 19.8 µM (inactive). Moreover, the GI50 was 24 µM (inactive) in test [13]; 16.8 µM (inactive) in [14]; 33.9 µM (inactive) in test [15]; 19.8 µM (inactive) in test [16]; 24.2 µM (inactive) in [17].
For the compound `CCNC(=O)Nc1cccc(C)n1`, the GI50 in [1], in [2], in test [3], in test [4], in [18] and in test [5] was > 100 µM (inactive) in each case. For the same compound, the GI50 is > 100 µM (inactive) in test [6]; > 100 µM (inactive) in [7]; > 100 µM (inactive) in [9]; 99.1 µM (inactive) in test [19]; > 100 µM (inactive) in test [10]; > 100 µM (inactive) in test [11]. For the same compound, the GI50 in [12] is > 100 µM (inactive); in test [13], > 100 µM (inactive); in [14], > 100 µM (inactive); in [15], 15.7 µM (inactive); in [16], > 100 µM (inactive); in [17] it was > 100 µM (inactive).
For `COC(=O)N1CC(=O)C(C(=O)NC23CC4CC(CC(C4)C2)C3)C1` (stereo not drawn), the GI50 in [1] was 42.5 µM (inactive); in test [2], 56.6 µM (inactive); in test [3] it was 74.3 µM (inactive); in test [4], > 100 µM (inactive); in test [18], > 100 µM (inactive); in [5], > 100 µM (inactive). Also, the GI50 was 35.8 µM (inactive) in test [6]; > 100 µM (inactive) in [7]; 39.2 µM in test [8]; 33.3 µM (inactive) in test [9]; 69.7 µM (inactive) in [19]; 78.7 µM (inactive) in [10]. For the same compound, the GI50 was 67.3 µM (inactive) in test [11]; 78.9 µM (inactive) in test [12]; > 100 µM (inactive) in [13]; 49.3 µM (inactive) in [14]; > 100 µM (inactive) in test [16]; 48.3 µM (inactive) in [17].
With `COC(=O)C1=C(C)NC2=C(C(=O)c3ccccc32)C1c1cn(-c2ccccc2)nc1-c1ccccc1` (stereo not drawn), the GI50 in test [1] was 23.4 µM (inactive); in [2], 34.5 µM (inactive); in test [3], 17.2 µM (inactive); in test [4], > 100 µM (inactive); in [18] it was > 48.1 µM (inactive); in test [5], 74.1 µM (inactive). In addition, the GI50 is 2.96 µM (inactive) in [6]; > 65.9 µM (inactive) in test [7]; 30.1 µM in test [8]; > 87.1 µM (inactive) in [9]; > 42.6 µM (inactive) in test [19]; 15.5 µM (inactive) in test [11]. The GI50 in [13] is > 85.3 µM (inactive); in test [14] it was > 53.5 µM (inactive); in [15], > 42.9 µM (inactive); in test [16], > 100 µM (inactive); in test [17], 2 µM (inactive).
Turning to `CC1CC/C(=C\c2ccc(N(C)C)cc2)C(=O)/C1=C/c1ccc(N(C)C)cc1` (stereo not drawn), the GI50 in test [1], in test [2], in [3], in test [4], in [5] and in [6] was > 100 µM (inactive) each time. Moreover, the GI50 in [7] is > 100 µM (inactive); in test [8] it was over 100 µM; in [9] it was > 100 µM (inactive); in test [19], > 100 µM (inactive); in [11], > 100 µM (inactive); in test [12] it was > 100 µM (inactive). The GI50 in test [13], in [14], in [15], in [16] and in [17] was > 100 µM (inactive) in each case.
As for `COc1ccc2nc3c(nc2c1)C(C)(C)C=C3c1ccc(Br)cc1`, the GI50 in [1] is > 100 µM (inactive); in test [3], > 100 µM (inactive); in test [4] it was 76.9 µM (inactive); in test [18] it was > 100 µM (inactive); in [5] it was > 100 µM (inactive); in [6], > 100 µM (inactive). In addition, the GI50 was > 100 µM (inactive) in [7]; over 100 µM in test [8]; > 100 µM (inactive) in test [9]; > 100 µM (inactive) in [10]; 97.9 µM (inactive) in test [11]; > 100 µM (inactive) in test [12]. For the same compound, the GI50 in test [13] is > 100 µM (inactive); in test [14], > 100 µM (inactive); in test [15], > 100 µM (inactive); in test [16], 5.68 µM (inactive); in test [17], > 100 µM (inactive).
Consider `CC(C)(C)C(=O)OC(N)/C=C/c1ccccc1` (stereo not drawn), for which the GI50 in [1], in test [2], in test [3], in test [4], in [5] and in [6] was > 100 µM (inactive) each time. For the same compound, the GI50 in [7] is > 100 µM (inactive); in [8], over 100 µM; in test [9], > 100 µM (inactive); in test [19] it was > 100 µM (inactive); in [10], > 100 µM (inactive); in test [11] it was > 100 µM (inactive). Moreover, the GI50 in test [12] was > 100 µM (inactive); in [13] it was > 100 µM (inactive); in test [14], > 100 µM (inactive); in [15] it was > 100 µM (inactive); in test [16], > 100 µM (inactive); in test [17], 94 µM (inactive).
With `Cn1ccnc1CCc1ccc(F)cc1F`, the GI50 in [1], in test [2], in [3], in test [4], in test [18] and in test [5] was > 100 µM (inactive) in each case. For the same compound, the GI50 is > 100 µM (inactive) in test [6]; > 100 µM (inactive) in test [7]; over 100 µM in test [8]; > 100 µM (inactive) in test [9]; > 100 µM (inactive) in [19]; > 100 µM (inactive) in test [10]. The GI50 in test [11], in test [12], in [14], in test [15], in test [16] and in [17] was > 100 µM (inactive) throughout.
Turning to `Cc1cc(N(CCC#N)CCC#N)ccc1C(/N=N/c1ccc(Cl)cc1)=N\NC(=O)c1cc(Cl)ccc1O`, the GI50 was 37 µM (inactive) in test [1]; 22.8 µM (inactive) in test [2]; 32.4 µM (inactive) in [3]; 27.1 µM (inactive) in [4]; 25.1 µM (inactive) in test [18]; 28.7 µM (inactive) in [5]. The GI50 was 53.5 µM (inactive) in test [6]; 29.1 µM (inactive) in test [7]; 39.4 µM in test [8]; 30.6 µM (inactive) in test [9]; 43.3 µM (inactive) in test [19]; 27.9 µM (inactive) in [10]. Besides, the GI50 is 37.1 µM (inactive) in [11]; 45.9 µM (inactive) in test [12]; 72.8 µM (inactive) in test [13]; 16.7 µM (inactive) in [14]; 36.4 µM (inactive) in test [15]; 38.7 µM (inactive) in test [17].
In the case of `Cc1nn(-c2ccccc2)c2nc(S)cnc12`, the GI50 in [1], in [2], in [4], in test [18], in [5] and in test [6] was > 100 µM (inactive) in each case. Also, the GI50 in test [7], in test [9], in test [19], in test [10], in test [11] and in test [12] was > 100 µM (inactive) throughout. The GI50 in [13], in [14], in [15], in test [16] and in [17] was > 100 µM (inactive) in each case.
`CC(C)C(C/C=C1/CC(CO)(COC(=O)CC(C(C)C)C(C)C)OC1=O)C(C)C` (stereo not drawn): the GI50 in test [1] was 2.74 µM (inactive); in test [2], 0.259 µM (active); in test [3], 1.79 µM (inactive); in test [4] it was 17.3 µM (inactive); in [18], 12.5 µM (inactive); in [5], 8.93 µM (inactive). Moreover, the GI50 in [7] is 2.98 µM (inactive); in test [8], 15.6 µM; in test [9], 5.61 µM (inactive); in test [19] it was 15.7 µM (inactive); in test [10], 2.44 µM (inactive); in test [11] it was 11.6 µM (inactive). The GI50 is 16.3 µM (inactive) in test [12]; 16 µM (inactive) in test [13]; 12.9 µM (inactive) in test [14]; 1.79 µM (inactive) in [15]; 0.991 µM (active) in test [16]; 17.1 µM (inactive) in test [17].
